Counter-ions that a name gives are not always drawn.
The molecules below were run against rat 5-HT7 receptor (Rattus norvegicus (Rat), UniProt P32305) (assay: r5-HT7 binding assay, competitive radioligand binding with [3H]5-CT). Conditions: rat 5-HT7, HEK-293 membranes.
Procedure: Receptor binding was performed using membrane fractions prepared from the HEK-293 cell line recombinantly expressing rat 5-HT7 receptors (NCBI accession NM_022938). Compound affinity for the rat 5-HT7 receptor subtype was evaluated by competitive radioligand binding assays using 5-carboxamido[^3H]tryptamine ([^3H]5-CT) (Amersham Biosciences, cat. 90000403) detection. HitHunter™ cAMP assays are in-vitro based competitive immunoassays. The assay was performed on the HEK-293 cell line stably transfected with r5-HT7 receptor. Cells were pre-incubated with test compounds for 10 minutes. For antagonist testing, the cells were then challenged with 100 nM 5-CT for 20 minutes. Cells were then lysed and cAMP measured according to manufacturers protocol (Amersham, cat. NET791250UC) or [^3H]mesulergine (Amersham, cat. TRK1041). The assay was performed on membranes prepared from HEK-293 cells stably transfected with h5-HT6. Following centrifugation, membranes were resuspended and incubated for 60 min at room temperature with 1.7 nM [^3H]LSD in the presence of increasing concentration of test compounds. Nonspecific binding was defined in the presence of 10 μM clozapine (Tocris, cat. TRK1068). Homogenized HEK-293 membranes expressing the human SERT were incubated in 50 mM Tris-HCl (pH 7.5), 120 mM NaCl, 5 mM KCl with [^3H]-citalopram (3 nM) with or without test compounds. Nonspecific binding was determined in the presence of 10 μM fluoxetine. Radioactivity readouts and Ki values were performed as previously described for r5-HT7. […] Compounds were assayed in their free form or as salts, as indicated in the Examples section above.

Sequence of rat 5-HT7 receptor (P32305 1-435): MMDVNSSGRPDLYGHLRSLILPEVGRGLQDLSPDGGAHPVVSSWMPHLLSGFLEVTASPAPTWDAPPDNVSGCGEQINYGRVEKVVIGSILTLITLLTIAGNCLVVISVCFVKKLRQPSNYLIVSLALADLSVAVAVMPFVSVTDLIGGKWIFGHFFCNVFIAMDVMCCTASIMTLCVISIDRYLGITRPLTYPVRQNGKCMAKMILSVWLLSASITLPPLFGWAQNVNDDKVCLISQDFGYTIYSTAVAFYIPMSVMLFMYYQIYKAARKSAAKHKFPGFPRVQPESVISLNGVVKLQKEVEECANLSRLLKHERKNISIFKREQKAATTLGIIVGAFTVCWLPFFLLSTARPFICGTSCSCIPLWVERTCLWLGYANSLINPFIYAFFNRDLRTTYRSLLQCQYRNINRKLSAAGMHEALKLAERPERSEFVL

SMILES | Ki
O=C(c1ccc2c(c1)OCO2)c1ccc(Cl)cc1OC1CNC1 [Example 295, [2-(Azetidin-3-yloxy)-4-chloro-phenyl]-benzo[1,3]dioxol-5-yl-methanone] | 0.226 µM
O=C(c1ccc(Cl)cc1)c1ccc(Cl)cc1OC1CNC1 [Example 297, [2-(Azetidin-3-yloxy)-4-chloro-phenyl]-(4-chloro-phenyl)-methanone] | 0.15 µM
Clc1ccc(Oc2ccccc2)c(OC2CNC2)c1 [Example 256, 3-(5-Chloro-2-phenoxy-phenoxy)-azetidine] | 0.16 µM
O=C(c1ccc(Cl)c(F)c1)c1ccc(Br)cc1OC1CNC1 [Example 292, [2-(Azetidin-3-yloxy)-4-bromo-phenyl]-(4-chloro-3-fluoro-phenyl)-methanone] | 0.074 µM
CN1CC(Oc2cc(Br)ccc2C(=O)c2cccc(Cl)c2)C1 [Example 283, [4-Bromo-2-(1-methyl-azetidin-3-yloxy)-phenyl]-(3-chloro-phenyl)-methanone] | 0.05 µM
Clc1ccc(OC2CNC2)c(OC2CNC2)c1 [Example 226] | 0.84 µM
CC(C)N1CC(Oc2ccc(Cl)cc2OC2CNC2)C1 [Example 224, 3-[5-Chloro-2-(1-Isopropyl-azetidin-3-ol)-phenoxy]-azetidine] | 0.068 µM
COc1cccc(C(=O)c2ccc(Br)cc2OC2CNC2)c1 [Example 286, [2-(Azetidin-3-yloxy)-4-bromo-phenyl]-(3-methoxy-phenyl)-methanone] | 0.039 µM
Clc1ccc(Oc2ccc3cccnc3n2)c(OC2CNC2)c1 [Example 263, 2-[2-(Azetidin-3-yloxy)-4-chloro-phenoxy]-[1,8]naphthyridine] | 0.544 µM
Brc1ccc(Oc2cccc3ccccc23)c(OC2CNC2)c1 [Example 255, 3-[5-Bromo-2-(naphthalen-1-yloxy)-phenoxy]-azetidine] | 0.196 µM
Cc1ccccc1Oc1ccc(Cl)cc1OC1CNC1 [Example 259, 3-(5-Chloro-2-o-tolyloxy-phenoxy)-azetidine trifluoroacetate] | 0.46 µM
COc1cccc(Oc2ccc(Br)cc2OC2CNC2)c1 [Example 248, 3-[5-Bromo-2-(3-methoxy-phenoxy)-phenoxy]-azetidine] | 0.043 µM
Brc1ccc(Oc2ccc(Br)cc2OC2CNC2)cc1 [Example 250, 3-[5-Bromo-2-(4-bromo-phenoxy)-phenoxy]-azetidine] | 0.017 µM
COc1ccc(C(=O)c2ccc(Br)cc2OC2CNC2)cc1 [Example 291, [2-(Azetidin-3-yloxy)-4-bromo-phenyl]-(4-methoxy-phenyl)-methanone] | 0.034 µM
O=C(c1ccc(Cl)c(Cl)c1)c1ccc(Br)cc1OC1CNC1 [Example 293, [2-(Azetidin-3-yloxy)-4-bromo-phenyl]-(3,4-dichloro-phenyl)-methanone] | 0.051 µM
Clc1ccc(OC2CN(C(c3ccccc3)c3ccccc3)C2)c(OC2CNC2)c1 [Example 225, 3-[5-Chloro-2-(1-benzhydryl-azetidin-3-ol)-phenoxy]-azetidine] | 2.67 µM
Clc1ccc(Oc2ccccc2)c(OC2CCNCC2)c1 [Example 265, 4-(5-Chloro-2-phenoxy-phenoxy)-piperidine] | 0.13 µM
Brc1ccc(Oc2ccc3ccccc3c2)c(OC2CNC2)c1 [Example 254, 3-[5-Bromo-2-(naphthalen-2-yloxy)-phenoxy]-azetidine] | 0.019 µM

Same assay, conditions: rat 5-HT7 receptor, HEK-293 membranes

SMILES | Ki
Clc1ccc(OC2CCCC2)c(OC2CNC2)c1 [Example 72, 3-(5-Chloro-2-cyclopentyloxy-phenoxy)-azetidine trifluoroacetate] | 0.27 µM
Cc1cc(COc2ccc(Cl)cc2OC2CNC2)c(C(F)(F)F)o1 [Example 78, 3-[5-Chloro-2-(5-methyl-2-trifluoromethyl-furan-3-ylmethoxy)-phenoxy]-azetidine] | 0.71 µM
CC(Oc1ccc(Cl)cc1OC1CNC1)c1ccccc1Cl (racemic) [Example 116, (±)-3-[5-Chloro-2-[1-(2-chloro-phenyl)-ethoxy]-phenoxy]-azetidine] | 0.068 µM
FCC(Oc1ccc(Cl)cc1OC1CCNCC1)c1ccccc1 (racemic) [Example 144, (±)-4-[5-Chloro-2-(2-fluoro-1-phenyl-ethoxy)-phenoxy]-piperidine] | 0.304 µM
CN(C)C(=O)c1ccc(OCc2cccc(Cl)c2)c(OC2CNC2)c1 [Example 211, 3-(Azetidin-3-yloxy)-4-(3-chloro-benzyloxy)-N,N-dimethyl-benzamide] | 9 µM
Fc1cc(C(F)(F)F)ccc1COc1ccc(Cl)cc1OC1CNC1 [Example 48, 3-[5-Chloro-2-(2-fluoro-4-trifluoromethyl-benzyloxy)-phenoxy]-azetidine] | 0.088 µM
CON=C1c2ccccc2CC1Oc1ccc(Cl)cc1OC1CNC1 (stereo not drawn) [Example 180, 2-[2-(Azetidin-3-yloxy)-4-chloro-phenoxy]-indan-1-one O-methyl-oxime] | 0.813 µM
Clc1ccc(OCC2CCCO2)c(OC2CNC2)c1 (stereo not drawn) [Example 166, 3-[5-Chloro-2-(tetrahydro-furan-2-ylmethoxy)-phenoxy]-azetidine] | 1.27 µM
Cc1nc(C(F)(F)F)ccc1COc1ccc(Cl)cc1OC1CNC1 [Example 80, 3-[2-(Azetidin-3-yloxy)-4-chloro-phenoxymethyl]-2-methyl-6-trifluoromethyl-pyridine] | > 10 µM
CC(C)N1CC(Oc2ccc(Br)cc2OCc2cccc(Cl)c2)C1 [Example 24, 3-[4-Bromo-2-(3-chloro-benzyloxy)-phenoxy]-1-isopropyl-azetidine] | 0.19 µM
CCCN1CC(Oc2cc(F)ccc2OCc2cccc(Cl)c2)C1 [Example 206, 3-[2-(3-Chloro-benzyloxy)-5-fluoro-phenoxy]-1-propyl-azetidine] | 0.021 µM
CS(=O)(=O)c1cc(Cl)ccc1COc1ccc(Cl)cc1OC1CNC1 [Example 56, 3-[5-Chloro-2-(4-chloro-2-methanesulfonyl-benzyloxy)-phenoxy]-azetidine] | 9 µM
CC(Oc1ccc(Cl)cc1OC1CNC1)c1cc(F)ccc1F (racemic) [Example 130, (±)-3-[5-Chloro-2-[1-(2,5-difluoro-phenyl)-ethoxy]-phenoxy]-azetidine trifluoroacetate] | 0.371 µM
Clc1cccc(COc2ccc(Cl)cc2O[C@@H]2CCNC2)c1 [Example 58, (R)-3-[5-Chloro-2-(3-chloro-benzyloxy)-phenoxy]-pyrrolidine] | 0.12 µM
C[C@H](Oc1ccc(Cl)cc1OC1CN(Cc2ccccc2)C1)c1cccc(C(F)(F)F)c1 [Example 104, (S)-1-Benzyl-3-[5-chloro-2-[1-(3-trifluoromethyl-phenyl)-ethoxy]-phenoxy]-azetidine] | 0.166 µM
CN1CCC(Oc2cc(Br)ccc2OCc2cccc(Cl)c2)C1 (racemic) [Example 95, (±)-3-[5-Bromo-2-(3-chloro-benzyloxy)-phenoxy]-1-methyl-pyrrolidine] | 0.009 µM
CC(Oc1ccc(Cl)cc1OC1CNC1)c1ccc(C(F)(F)F)c(F)c1 (racemic) [Example 118, (±)-3-[5-Chloro-2-[1-(3-fluoro-4-trifluoromethyl-phenyl)-ethoxy]-phenoxy]-azetidine] | 0.09 µM
Clc1cccc(C2(COc3ccc(Cl)cc3OC3CNC3)CCC2)c1 [Example 189, 3-[5-Chloro-2-[1-(3-chloro-phenyl)-cyclobutylmethoxy]-phenoxy]-azetidine] | 0.138 µM
CC(C)(C)c1ccc2c(c1)CCC2Oc1ccc(Br)cc1OC1CNC1 (stereo not drawn) [Example 162, 3-[5-Bromo-2-(5-tert-butyl-indan-1-yloxy)-phenoxy]-azetidine] | 5 µM
Clc1ccc(OCC2Cc3ccccc3O2)c(OC2CNC2)c1 (stereo not drawn) [Example 169, 3-[5-Chloro-2-(2,3-dihydro-benzofuran-2-ylmethoxy)-phenoxy]-azetidine] | 0.119 µM
FC(F)(F)c1cccc(COc2ccc(Cl)cc2OC2CCCNC2)c1 (racemic) [Example 71, (±)-3-[5-Chloro-2-(3-trifluoromethyl-benzyloxy)-phenoxy]-piperidine] | 0.143 µM
Clc1ccc(OCc2cnco2)c(OC2CNC2)c1 [Example 87, 5-[2-(Azetidin-3-yloxy)-4-chloro-phenoxymethyl]-oxazole] | 0.24 µM
Clc1ccc(OCc2ccccc2Cl)c(O[C@@H]2CCNC2)c1 [Example 60, (R)-3-[5-Chloro-2-(2-chloro-benzyloxy)-phenoxy]-pyrrolidine] | 0.25 µM
CN1CCC(Oc2cc(Br)ccc2OCc2cccc(F)c2)C1 (racemic) [Example 97, (±)-3-[5-Bromo-2-(3-fluoro-benzyloxy)-phenoxy]-1-methyl-pyrrolidine] | 0.034 µM
CC(C)N1CC(Oc2cc(F)ccc2OCc2cccc(Cl)c2)C1 [Example 204, 3-[2-(3-Chloro-benzyloxy)-5-fluoro-phenoxy]-1-isopropyl-azetidine] | 0.027 µM
CC(Oc1ccc(Cl)cc1OC1CNC1)c1ccc(F)c(F)c1 (racemic) [Example 128, (±)-3-[5-Chloro-2-[1-(3,4-difluoro-phenyl)-ethoxy]-phenoxy]-azetidine trifluoroacetate] | 0.127 µM
Fc1cc(Cl)cc(OC2CNC2)c1OCc1ccc(C(F)(F)F)o1 [Example 198, 3-[5-Chloro-3-fluoro-2-(5-trifluoromethyl-furan-2-ylmethoxy)-phenoxy]-azetidine] | 1.46 µM

From patent US9981909B2 (Janssen Pharmaceutica NV, priority 2008, dated 2018)
